Experiments:
[1] = test system: breast and ovarian cancer cell lines (DNA barcoded human cancer cell lines); assay: PRISM screen, 5-day cell growth assay of pooled DNA barcoded cancer cell lines; format: cell-based; conditions: TP53 MUT cell lines, 5 days
Experimental: FIG. 1 is a series of scatter plots of pooled barcoded cancer cell lines treated in a 5-day cell growth assay with DMSO or KIF18Ai C9 (8-point concentration range), relative abundance of unique cell line barcodes was measured to estimate cell viability. KIF18Ai C9 AUC values versus CIN features (whole genome doubling (WGD), ploidy, aneuploidy score (AS)) plus TP53 status in breast and ovarian cancer cell lines (n=58). Scatter plots show KIF18Ai C9 AUC versus CIN features plus TP53 status with mean AUC indicated for each group. Colored cell lines overlap with KIF18Ai C9 sensitivity in nonbarcoded screens. Dotted line indicates AUC value of 0.65. ** p=0.0037, *** p=0.0004 by unpaired t-test.
To investigate the anti-proliferative effects of KIF18A inhibitors, a PRISM (profiling relative inhibition simultaneously in mixtures) screen was conducted on a panel of DNA barcoded human cancer cell lines. Pooled cancer cell lines were treated with DMSO or increasing concentrations of KIF18A inhibitor, Compound C9, for 5 days, and then cell viability was determined by measuring the abundance for each unique DNA barcode. We divided the cell lines by CIN features (WGD, ploidy, aneuploidy score) and further subdivided them based on TP53 status. In the TP53^MUT cancer cell lines, we observed a significant enrichment for KIF18A inhibitor sensitivity in cell lines that were WGD+ with >2.1 ploidy (55%, 12 of 22 sensitive) relative to WGD− with ≤2.1 ploidy (21%, 4 of 19 sensitive) (p=0.0004).

HCC1806 cells [2] = assay: mitotic duration and fate (slippage) by live-cell timelapse imaging of cells arrested with DMN; format: cell-based
Experimental: To define the capacity of KIF18Ai-resistant HCC1806 clonal lines to maintain the mitotic state, we arrested cells indefinitely in mitosis with the Eg5 inhibitor dimethylenastron (DMN) which causes spindle collapse and chronic SAC activation^28,29. We then monitored mitotic slippage by live-cell timelapse imaging.
Fluorescent cell lines were seeded into either 4-chamber, 35-mm glass-bottom culture dishes (Greiner), 4-well chamber slides (Ibidi), or 8-well chamber slides (Ibidi). The day of the experiment, cells were transferred to CO2-independent base medium (ThermoFischer) with the appropriate additives for each cell line and maintained at 37° C. in an environmental control station. Long-term time-lapse imaging was performed using a Deltavision Elite system (GE Healthcare) controlling a Scientific CMOS camera (pco.edge 5.5.). Images were acquired with an Olympus 40×1.4 NA oil objective. For general mitotic phenotypes, cells were treated as indicated, then images were captured every 5 min in 9×3 μm z-sections in respective fluorescent channels and by differential inference contrast. For CyclinB1-EYFP experiments, cells were treated as indicated, then images were captured every 2.5 min in 9×3 μm z-sections in respective fluorescent channels and by differential inference contrast. Phenotypic evaluation and intensity measurements were taken from maximum intensity projected 2D time-lapse images. Mitotic duration was calculated as the time taken from nuclear envelope breakdown to the onset of anaphase. Metaphase to anaphase duration was calculated as the time from the appearance of the last, uninterrupted metaphase plate to the onset of anaphase. Analysis of Cyclin B1-EYFP mitotic intensity was measured from NEBD through 30 min past anaphase using FIJI. Intensity traces were manually aligned to the metaphase to anaphase inflection point, then normalized in R. If traces never inflected, they were aligned to 30 min past NEBD.

HCC1806 cells [3] = assay: 5-day MTT endpoint viability assay, HCC1806
Experimental: The following day, drugs were added as indicated and cells were cultured for 5 days. […] 100 μL 10% SDS, 0.01M HCl solution was then added to each well to dissolve the formazan crystals. Absorbance was measured with a spectrophotometer at 570 nm. % Viability=(Signal[sample]−Signal[DMN])/(Signal [DMSO]−Signal [DMN])×100 unless specifically noted. % Toxicity=100%−Viability. % Viability rescue=(Signal [sample, KIF18Ai]−Signal[WT, KIF18Ai])/(Signal[WT, DMSO]−Signal [WT, KIF18Ai])×100. Drug titration curves were derived using the equation for “[Inhibitor] vs. response−Variable slope (four-parameter)” in GraphPad Prism 7 for Mac OS X (GraphPad Software, La Jolla, USA).

[4] = test system: panel of sensitive and insensitive cell lines (RPE1, MCF10A, HCT116, DLD1, MCF7, MDA-MB-157, HCC1806, HeLa, OVCAR-3, OVCAR-8); assay: 5-day MTT endpoint viability assay, cell line panel; format: cell-based; conditions: sensitive cell lines co-treated with KIF18Ai and low doses of Reversine (30 nM, FIG. 9E)
Text: To investigate the determinants of KIF18A dependency in cancer, we used AM-1882, a highly specific small molecule KIF18A inhibitor (KIF18Ai) developed by Amgen Inc^21,23. Treatment with KIF18Ai causes stable binding of the KIF18A motor domain to microtubules^23, leading to the relocation of KIF18A in mitosis from kinetochores to spindle poles in all the cell lines tested (FIG. 8a and FIG. 15a). This mis-localization phenocopies the effect of KIF18A loss^21, likely by blocking KIF18A-induced stabilization of microtubule plus ends^16. We examined the effect of KIF18Ai on cell viability using a 5-day endpoint assay performed with non-transformed cells (RPE1 and MCF10A) and a panel of colon (HCT116, DLD1), breast (MCF7, MDA-MB-157, HCC1806), and ovarian (HeLa, OVCAR-3, OVCAR-8) cancer cell lines (FIG. 8b,c and FIG. 15b).

CC(C)(C)NS(=O)(=O)c1cccc(NC(=O)c2ccc(S(=O)(=O)NC(C)(C)C)cc2N2CCC3(CC2)CC3)c1 [Compound C9, 4-(N-(tert-butyl)sulfamoyl)-N-(3-(N-(tert-butyl)sulfamoyl)phenyl)-2-(6-azaspiro[2.5]octan-6-yl)benzamide]
cell lines sensitive to KIF18A inhibitor ([1]; WGD+ with >2.1 ploidy (12 of 22 sensitive)): 55% | cell lines sensitive to KIF18A inhibitor ([1]; WGD− with ≤2.1 ploidy (4 of 19 sensitive)): 21% | cell lines sensitive to KIF18A inhibitor ([1]; aneuploidy score >8 (16 of 34 sensitive)): 47% | cell lines sensitive to KIF18A inhibitor ([1]; aneuploidy score ≤8 (0 of 7 sensitive)): 0%

CC1(C)CC(=O)C2=C(C1)NC(=S)NC2c1cccc(O)c1 (stereo not drawn) [DMN, dimethylenastron]
slippage rate (HCC1806 cells [2]; Cyclin B1 knockout HCC1806): 93% | time spent in mitosis (HCC1806 cells [2]; Cyclin B1 knockout HCC1806): 11 h | rate of mitotic slippage (HCC1806 cells [2]; HSET knockout HCC1806): 27% | time in mitosis (HCC1806 cells [2]; HSET knockout HCC1806): 19 h | cell death (HCC1806 cells [2]; WT HCC1806): 75% | mitotic slippage (HCC1806 cells [2]; WT HCC1806): 25% | time in mitosis (average) (HCC1806 cells [2]; WT HCC1806): 25 h | rate of mitotic slippage (HCC1806 cells [2]; hypomorphic MAD1 HCC1806): 95% | time in mitosis (HCC1806 cells [2]; hypomorphic MAD1 HCC1806): 23 h

O=C1NC(=NCc2cccs2)S/C1=C\c1ccc2ncccc2c1 [RO-3306]
rescue of viability in KIF18Ai-treated cells (HCC1806 cells [3]; sub-saturating concentrations of RO-3306): robust rescue of viability

c1nc2nc(Nc3ccc(N4CCOCC4)cc3)nc(NC3CCCCC3)c2[nH]1 [Reversine]
effect on cells (HCC1806 cells [3]; higher concentrations of Reversine): toxic to cells | rescue of KIF18Ai toxicity (HCC1806 cells [3]; low doses of Reversine, WT and UBE2S overexpressing HCC1806 treated with KIF18Ai): potent rescue of KIF18Ai toxicity | rescue of KIF18Ai toxicity [4]: rescued KIF18Ai toxicity | time to exit mitosis (all cells) (HCC1806 cells [2]; SAC function abolished with Reversine, compared with DMN arrest): less than an hour
